Where “and” joins values, the source holds several entries; their conditions need not be identical. Identical values can stand only once.
Experiments:
Lyn kinase (human) = target: T1, Lyn kinase (human) (Homo sapiens, UniProt P07948); experiment: Lyn Kinase Assay; type: biochemical; details: for inhibition at 2 µM / % Inhibition (Lyn): test concentration of 2 μM; for % Inhibition (Lyn): 2 µM
T1 construct: purchased Upstate Biotechnology, Lake Placid, N.Y
How it was run: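 Radiometric filter-binding assay with recombinant human Lyn, poly(Glu,Tyr) substrate (0.1 mg/mL final), 5 μM ATP plus γ-33P-ATP in MOPS pH 7.5/Mg acetate buffer; 40 min at 30 °C, stopped with phosphoric acid, counted by scintillation. Reported as percent inhibition at 2 μM, with IC50 (μM) where determined.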

HER-2 = target: T2, HER-2 (Homo sapiens, UniProt P04626); experiment: HER-2 Kinase Assay; type: biochemical; details: for inhibition at 1 µM: test concentration of 1 μM; for IC50: value in parentheses
T2 construct: His6 with thrombin site (N); purchased Proqinase (Freiburg, Germany)
T2 sequence (P04626 679-1255): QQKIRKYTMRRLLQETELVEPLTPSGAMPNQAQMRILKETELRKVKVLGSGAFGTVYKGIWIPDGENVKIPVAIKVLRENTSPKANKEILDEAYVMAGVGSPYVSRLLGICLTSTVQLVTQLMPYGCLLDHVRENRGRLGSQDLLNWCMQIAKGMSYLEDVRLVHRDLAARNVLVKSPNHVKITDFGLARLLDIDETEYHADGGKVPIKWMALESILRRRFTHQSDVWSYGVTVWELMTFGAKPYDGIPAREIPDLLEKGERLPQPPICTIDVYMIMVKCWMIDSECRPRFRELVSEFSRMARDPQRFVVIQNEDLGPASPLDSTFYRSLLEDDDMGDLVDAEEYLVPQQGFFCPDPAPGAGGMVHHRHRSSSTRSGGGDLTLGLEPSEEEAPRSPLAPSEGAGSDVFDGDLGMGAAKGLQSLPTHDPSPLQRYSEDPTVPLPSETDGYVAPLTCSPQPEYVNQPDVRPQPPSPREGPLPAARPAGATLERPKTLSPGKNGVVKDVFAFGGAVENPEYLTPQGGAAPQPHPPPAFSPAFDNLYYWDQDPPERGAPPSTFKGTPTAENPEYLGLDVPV
How it was run: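 Read-out was scintillation counting of 33P incorporated into biotinylated polyGluTyr captured on streptavidin plates. Reactions ran 1 h at 30 °C with GST-fused HER-2 residues 679–1255, 1 μM ATP, Mn2+ and Mg2+ at pH 7.5; data given as percent inhibition at 1 μM, with IC50 where determined.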

T1 sequence (P07948 whole entry): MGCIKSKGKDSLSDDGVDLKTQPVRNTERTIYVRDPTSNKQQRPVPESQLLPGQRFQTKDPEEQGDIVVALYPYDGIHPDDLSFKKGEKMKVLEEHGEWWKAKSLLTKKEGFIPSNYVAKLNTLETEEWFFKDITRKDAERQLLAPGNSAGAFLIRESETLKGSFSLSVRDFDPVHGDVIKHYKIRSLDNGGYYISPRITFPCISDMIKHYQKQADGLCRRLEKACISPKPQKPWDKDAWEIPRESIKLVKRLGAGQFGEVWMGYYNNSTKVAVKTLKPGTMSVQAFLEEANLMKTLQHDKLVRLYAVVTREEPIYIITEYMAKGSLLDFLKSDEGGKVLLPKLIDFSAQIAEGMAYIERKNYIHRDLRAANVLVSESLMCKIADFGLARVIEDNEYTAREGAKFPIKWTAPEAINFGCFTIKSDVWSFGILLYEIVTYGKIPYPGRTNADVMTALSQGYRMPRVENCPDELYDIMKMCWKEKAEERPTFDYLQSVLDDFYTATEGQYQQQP

Row | inhibition at 2 µM (Lyn kinase (human)) [%] | inhibition at 1 µM (HER-2) [%] | IC50 (HER-2) [nM] | % Inhibition (Lyn) (Lyn kinase (human)) | IC50 (Lyn kinase (human); value in parentheses) [nM] | SMILES
1 | 71 | 21 |  |  |  | COc1cc(N2C(=O)Nc3c(C(=O)Nc4ccc(CN5CCCC5)cc4)sc4ncnc2c34)c(Cl)cc1Cl [Cpd 43, 5-(2,4-dichloro-5-methoxy-phenyl)-4-oxo-4,5-dihydro-3H-1-thia-3,5,6,8-tetraaza-acenaphthylene-2-carboxylic acid (4-pyrrolidin-1-ylmethyl-phenyl)-amide]
2 | 50 | -5 |  |  |  | COc1ccc(Cl)c(N2C(=O)Nc3c(C(=O)Nc4ccc(OC)c(OC)c4)sc4ncnc2c34)c1 [Cpd 49, 5-(2-chloro-5-methoxy-phenyl)-4-oxo-4,5-dihydro-3H-1-thia-3,5,6,8-tetraaza-acenaphthylene-2-carboxylic acid (3,4-dimethoxy-phenyl)-amide]
3 | 60 | -5 |  |  |  | COc1ccc(Cl)c(N2C(=O)Nc3c(C(=O)Nc4ccc(OCCN5CCOCC5)c(OC)c4)sc4ncnc2c34)c1 [Cpd 50, 5-(2-chloro-5-methoxy-phenyl)-4-oxo-4,5-dihydro-3H-1-thia-3,5,6,8-tetraaza-acenaphthylene-2-carboxylic acid [3-methoxy-4-(2-morpholin-4-yl-ethoxy)-phenyl]-amide]
4 | 70 | 28 |  |  |  | COc1ccc(Cl)c(N2C(=O)Nc3c(C(=O)Nc4ccc(CN5CCOCC5)cc4)sc4ncnc2c34)c1 [Cpd 51, 5-(2-chloro-5-methoxy-phenyl)-4-oxo-4,5-dihydro-3H-1-thia-3,5,6,8-tetraaza-acenaphthylene-2-carboxylic acid (4-morpholin-4-ylmethyl-phenyl)-amide]
5 | 52 | 3 |  |  |  | COC(=O)c1sc2ncnc3c2c1NC(=O)N3c1c(Cl)ccc2c1OCO2 [Cpd 54, 5-(5-chloro-benzo[1,3]dioxol-4-yl)-4-oxo-4,5-dihydro-3H-1-thia-3,5,6,8-tetraaza-acenaphthylene-2-carboxylic acid methyl ester]
6 | 50 | 22 |  |  |  | COc1cc(N2C(=O)Nc3c(C(=O)Nc4ccc(CN5CCN(C)CC5)cc4)sc4ncnc2c34)c(Cl)cc1Cl [Cpd 60]
7 | 92 |  | 528 |  |  | O=C(Nc1ccc(CN2CCOCC2)cc1)c1sc2ncnc3c2c1NC(=O)N3c1c(Cl)ccc2c1OCO2 [Cpd 62, 5-(5-chloro-benzo[1,3]dioxol-4-yl)-4-oxo-4,5-dihydro-3H-1-thia-3,5,6,8-tetraaza-acenaphthylene-2-carboxylic acid (4-morpholin-4-ylmethyl-phenyl)-amide]
8 | 26 | 57 | 447 |  |  | O=C(Nc1ccc(NCCCN2CCOCC2)nc1)c1sc2ncnc3c2c1NC(=O)N3c1cccc(Br)c1 [Cpd 64, 5-(3-bromo-phenyl)-4-oxo-4,5-dihydro-3H-1-thia-3,5,6,8-tetraaza-acenaphthylene-2-carboxylic acid [6-(3-morpholin-4-yl-propylamino)-pyridin-3-yl]-amide]
9 |  | 93 | 69 | 4% and 0.5% |  | O=C(Nc1ccc(CN2CCCCC2)cc1)c1sc2ncnc3c2c1NC(=O)N3c1ccc(OCc2ccccn2)c(Cl)c1 [Cpd 89, 5-[3-chloro-4-(pyridin-2-ylmethoxy)-phenyl]-4-oxo-4,5-dihydro-3H-1-thia-3,5,6,8-tetraaza-acenaphthylene-2-carboxylic acid (4-piperidin-1-ylmethyl-phenyl)-amide]
10 | -8.1 | 82 | 503 |  |  | CN1CCN(Cc2ccc(NC(=O)c3sc4ncnc5c4c3NC(=O)N5c3ccc(OCc4ccccn4)c(Cl)c3)cc2)CC1 [Cpd 90, 5-[3-chloro-4-(pyridin-2-ylmethoxy)-phenyl]-4-oxo-4,5-dihydro-3H-1-thia-3,5,6,8-tetraaza-acenaphthylene-2-carboxylic acid [4-(4-methyl-piperazin-1-ylmethyl)-phenyl]-amide]
11 | 27 | 98 | 41 | 16.8% |  | O=C(Nc1ccc(CN2CCCCC2)cc1)c1sc2ncnc3c2c1NC(=O)N3c1ccc(Oc2ccccc2)cc1 [Cpd 96, 4-oxo-5-(4-phenoxy-phenyl)-4,5-dihydro-3H-1-thia-3,5,6,8-tetraaza-acenaphthylene-2-carboxylic acid (4-piperidin-1-ylmethyl-phenyl)-amide]
12 | 36.5 | 97 | 27 | 26.6% |  | O=C(Nc1ccc(CN2CCOCC2)cc1)c1sc2ncnc3c2c1NC(=O)N3c1ccc(Oc2ccccc2)cc1 [Cpd 97, 4-oxo-5-(4-phenoxy-phenyl)-4,5-dihydro-3H-1-thia-3,5,6,8-tetraaza-acenaphthylene-2-carboxylic acid (4-morpholin-4-ylmethyl-phenyl)-amide]
13 | 30.7 | 95 | 88 | 50.0% |  | CN1CCN(Cc2ccc(NC(=O)c3sc4ncnc5c4c3NC(=O)N5c3ccc(Oc4ccccc4)cc3)cc2)CC1 [Cpd 98, 4-oxo-5-(4-phenoxy-phenyl)-4,5-dihydro-3H-1-thia-3,5,6,8-tetraaza-acenaphthylene-2-carboxylic acid [4-(4-methyl-piperazin-1-ylmethyl)-phenyl]-amide]
14 | 40 | 95 | 111 | 50% |  | COc1cc(NC(=O)c2sc3ncnc4c3c2NC(=O)N4c2ccc(Oc3ccccc3)cc2)ccc1OCCN1CCCCC1 [Cpd 100, 4-oxo-5-(4-phenoxy-phenyl)-4,5-dihydro-3H-1-thia-3,5,6,8-tetraaza-acenaphthylene-2-carboxylic acid [3-methoxy-4-(2-piperidin-1-yl-ethoxy)-phenyl]-amide]
15 | 70 |  | 7070 | 69% |  | O=C(Nc1ccc(CN2CCOCC2)cc1)c1sc2ncnc3c2c1NC(=O)N3c1c(Cl)cccc1Cl [Cpd 104, 5-(2,6-dichloro-phenyl)-4-oxo-4,5-dihydro-3H-1-thia-3,5,6,8-tetraaza-acenaphthylene-2-carboxylic acid (4-morpholin-4-ylmethyl-phenyl)-amide]
16 | 60 | 83 | 89 | 55% |  | O=C(Nc1ccc(CN2CCOCC2)cc1)c1sc2ncnc3c2c1NC(=O)N3c1ccc(Oc2ccccc2)c(F)c1 [Cpd 113, 5-(3-fluoro-4-phenoxy-phenyl)-4-oxo-4,5-dihydro-3H-1-thia-3,5,6,8-tetraaza-acenaphthylene-2-carboxylic acid (4-morpholin-4-ylmethyl-phenyl)-amide]
17 | 55 |  | > 100000 |  | 1440 | O=C(Nc1ccc(CN2CCOCC2)cc1)c1sc2ncnc3c2c1NC(=O)N3c1ccc(N2CCOCC2)cc1 [Cpd 123, 5-(4-morpholin-4-yl-phenyl)-4-oxo-4,5-dihydro-3H-1-thia-3,5,6,8-tetraaza-acenaphthylene-2-carboxylic acid (4-morpholin-4-ylmethyl-phenyl)-amide]
18 |  |  | 26 |  |  | O=C(Nc1ccc(CN2CCCCC2)cc1)c1sc2ncnc3c2c1NC(=O)N3c1ccc(Sc2ccccc2)cc1 [Cpd 169, 4-oxo-5-(4-phenylsulfanyl-phenyl)-4,5-dihydro-3H-1-thia-3,5,6,8-tetraaza-acenaphthylene-2-carboxylic acid (4-piperidin-1-ylmethyl-phenyl)-amide]
19 |  |  | 56 |  |  | O=C(Nc1ccc(CN2CCOCC2)cc1)c1sc2ncnc3c2c1NC(=O)N3c1ccc(Sc2ccccc2)cc1 [Cpd 178, 4-oxo-5-(4-phenylsulfanyl-phenyl)-4,5-dihydro-3H-1-thia-3,5,6,8-tetraaza-acenaphthylene-2-carboxylic acid (4-morpholin-4-ylmethyl-phenyl)-amide]

From US7579356B2, “Thia-tetraazaacenaphthylene kinase inhibitors” (Janssen Pharmaceutica NV, priority 2005, dated 2009)
